Measurements reported in ChEMBL document CHEMBL1130437, “Discovery of selective dopamine D4 receptor antagonists: 1-Aryloxy-3-(4-aryloxypiperidinyl)-2-propanols” (Bioorg Med Chem Lett, 1997).

Assays:
Assay type in all cases: cell-based
[1] = molecular target: T1, D(4) dopamine receptor (Homo sapiens, UniProt P21917); test: Binding affinity against human cloned D4 receptor transfected in CHO-K1 cells by [3H]- spiperone displacement.
T1 sequence (P21917 whole entry): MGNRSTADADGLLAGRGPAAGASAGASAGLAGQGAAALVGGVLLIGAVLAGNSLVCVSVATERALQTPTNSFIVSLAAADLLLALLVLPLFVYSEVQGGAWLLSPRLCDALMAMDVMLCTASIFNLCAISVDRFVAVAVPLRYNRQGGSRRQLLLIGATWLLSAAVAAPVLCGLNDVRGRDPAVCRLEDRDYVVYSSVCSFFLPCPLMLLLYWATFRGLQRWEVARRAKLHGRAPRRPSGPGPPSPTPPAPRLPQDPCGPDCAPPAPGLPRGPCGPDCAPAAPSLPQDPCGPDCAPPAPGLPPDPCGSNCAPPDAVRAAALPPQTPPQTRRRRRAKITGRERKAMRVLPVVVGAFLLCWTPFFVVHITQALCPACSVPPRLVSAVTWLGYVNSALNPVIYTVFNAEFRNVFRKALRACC

[2] = molecular target: D(2) dopamine receptor (Homo sapiens, UniProt P14416); test: Binding affinity against cloned human D2 receptor transfected in CHO-K1 cells using [3H]- spiperone as radioligand.
[3] = molecular target: D(3) dopamine receptor (Homo sapiens, UniProt P35462); test: Binding affinity against cloned human D3 receptor transfected in CHO-K1 cells using [3H]- spiperone as radioligand.
D(3) dopamine receptor, sequence (P35462 whole entry): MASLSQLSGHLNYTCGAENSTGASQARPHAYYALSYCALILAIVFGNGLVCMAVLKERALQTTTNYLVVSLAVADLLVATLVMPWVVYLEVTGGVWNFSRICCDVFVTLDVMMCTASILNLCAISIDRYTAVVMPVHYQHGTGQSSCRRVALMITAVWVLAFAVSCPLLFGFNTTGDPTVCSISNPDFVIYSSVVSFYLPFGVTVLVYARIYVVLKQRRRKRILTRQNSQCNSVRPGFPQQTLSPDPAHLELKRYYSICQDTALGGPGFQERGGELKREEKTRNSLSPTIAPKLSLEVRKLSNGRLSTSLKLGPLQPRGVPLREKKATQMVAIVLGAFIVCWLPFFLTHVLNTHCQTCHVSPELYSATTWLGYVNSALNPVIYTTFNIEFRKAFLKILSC

D(2) dopamine receptor, sequence (P14416 whole entry): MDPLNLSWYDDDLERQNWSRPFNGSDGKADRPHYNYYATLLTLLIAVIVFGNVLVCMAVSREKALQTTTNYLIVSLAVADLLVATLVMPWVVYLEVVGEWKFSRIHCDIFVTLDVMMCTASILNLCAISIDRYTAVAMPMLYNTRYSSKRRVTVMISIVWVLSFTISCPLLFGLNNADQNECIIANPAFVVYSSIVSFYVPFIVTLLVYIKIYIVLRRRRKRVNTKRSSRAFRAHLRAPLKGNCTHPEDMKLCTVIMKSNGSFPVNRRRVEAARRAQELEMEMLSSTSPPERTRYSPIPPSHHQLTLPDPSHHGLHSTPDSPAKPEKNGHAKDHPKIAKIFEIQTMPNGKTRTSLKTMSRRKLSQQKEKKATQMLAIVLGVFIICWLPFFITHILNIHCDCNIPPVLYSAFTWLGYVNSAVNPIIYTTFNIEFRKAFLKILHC

| SMILES | Ki [1] | Ki [2] | Ki [3] |
| --- | --- | --- | --- |
| O=[N+]([O-])c1ccc(OCC(O)CN2CCC(Cc3ccccc3)CC2)cc1 (stereo not given) | 59 nM |  |  |
| Cc1ccc(CC2CCN(CC(O)COc3cccc4ccccc34)CC2)cc1 (stereo not given) | 52 nM |  |  |
| CC(COc1cccc2ccccc12)CN1CCC(Cc2ccccc2)CC1 (stereo not given) | 72 nM |  |  |
| COc1ccc(CC2CCN(CC(O)COc3cccc4ccccc34)CC2)cc1 (stereo not given) | 74 nM |  |  |
| COC(COc1cccc2ccccc12)CN1CCC(Cc2ccccc2)CC1 (stereo not given) | 45 nM |  |  |
| COc1ccc(OCC(O)CN2CCC(Cc3ccccc3)CC2)cc1 (stereo not given) | 123 nM |  |  |
| c1ccc(CC2CCN(CCCOc3cccc4ccccc34)CC2)cc1 | 50 nM |  |  |

Further molecules by falling Ki [1], results first:

| Ki [1] | Ki [2] | Ki [3] | SMILES |
| --- | --- | --- | --- |
| 45 nM |  |  | OC(COc1cccc2ccccc12)CN1CCC(Cc2ccc(Cl)cc2)CC1 (stereo not given) |
| 34 nM |  |  | OC(COc1ccccc1)CN1CCC(Cc2ccccc2)CC1 (stereo not given) |
| 32 nM |  |  | OC(COc1cccc2ccccc12)CN1CCC(Cc2ccc(F)cc2)CC1 (stereo not given) |
| 32 nM |  |  | OC(COc1cccc2ccccc12)CN1CCC(Sc2ccccc2)CC1 (stereo not given) |
| 26 nM | 1440 nM |  | OC(COc1cccc2ccccc12)CN1CCC(Cc2ccccc2)CC1 (stereo not given) |
| 18 nM |  |  | OC(COc1ccc(Cl)cc1)CN1CCC(Cc2ccccc2)CC1 (stereo not given) |
| 18 nM | 2340 nM |  | OC(COc1cccc2ccccc12)CN1CCC(Oc2ccccc2)CC1 (stereo not given) |
| 11.6 nM | 709 nM | 457 nM | O[C@H](COc1ccccc1)CN1CCC(Oc2ccccc2)CC1 |
| 3.6 nM | 911 nM | 537 nM | OC(COc1ccccc1)CN1CCC(Oc2ccccc2)CC1 (racemic) |
| 2 nM | 244 nM | 220 nM | O[C@@H](COc1ccccc1)CN1CCC(Oc2ccccc2)CC1 |
